Test results from PMC5440000 (Clinical Interventions in Aging, 2017).

Target: Aβ42 (Homo sapiens, UniProt P05067)
Test: Thioflavin T aggregation assay, […] h at […]°C
Format: biochemical

Chain of Aβ42 (P05067 672-713): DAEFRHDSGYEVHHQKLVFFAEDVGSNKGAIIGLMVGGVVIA

Row | IC50 [nM] | Structure (SMILES)
1 | 2290 | CC1=C(/C=C/C(C)=C/C=C/C(C)=C/C=C/C=C(C)/C=C/C=C(C)/C=C/C2=C(C)C[C@@H](O)CC2(C)C)C(C)(C)C[C@H](O)C1 [zeaxanthin]
2 | 1970 | CC1=C(/C=C/C(C)=C/C=C/C(C)=C/C=C/C=C(C)/C=C/C=C(C)/C=C/C(=O)[C@]2(C)C[C@@H](O)CC2(C)C)C(C)(C)CCC1 [cryptocapsin]
